Patent US8466172B2, “Stabilization of hypoxia inducible factor (HIF) alpha” (FibroGen, Inc., priority 2001, dated 2013)

Experiments:
[1] = tested on: Wistar rats, acute myocardial infarction (AMI); assay: Cardiac ischemia Experiment I, 10-week study after acute myocardial infarction; format: in vivo, rat
Experimental: Alternatively, one hundred forty adult male Wistar rats (200-250 g) were anaesthetized and subjected to left coronary artery occlusion to produce AMI. Forty-eight hours after surgery, 2DE images were obtained and animals with a significant area of infarction were randomized to treatment with compound A (n=34) or vehicle (n=34).
Animals were treated by gavage 2 times per day for the duration of the experiment with compound A at 50 mg/kg or with vehicle alone. Serum level of drug was determined periodically to establish that treated animals received sufficient and consistent amount of drug and that the measured levels were sufficient to inhibit prolyl 4-hydroxylase.
Digital mid-papillary muscle and apical four chamber 2DE images were obtained biweekly on half of the animals in each group until week 8. Two observers blinded to treatment did measurements off-line. For the measurements, the digital images were slowed and frozen at end systole and end diastole. Two to three endocardial surfaces were traced in both the short axis and four chamber views and averaged. The left ventricular area in systole and diastole, ejection fraction, fractional area change, wall thickness, mitral peak E wave velocity, aortic peak velocity, and infarct size were measured.
After 10 weeks of treatment, in vivo hemodynamic measurements were determined and hearts were excised and weighed as described below.
To collect in vivo hemodynamic measurements, animals were anaesthetized and the right carotid artery was dissected free from surrounding tissues and canulated with an SPR-671 ultra-miniature pressure transducer (Millar Instruments, Inc., Houston Tex.). The catheter was then advanced into the left ventricle. After steady state was established, baseline heart rate (HR), developed pressure (DP), contractile index (CI), left ventricle systolic pressure (SBP) and end diastolic pressure (LVEDP), and maximal rate of pressure rise and fall (+dP/dt and −dP/dt, respectively) were recorded.
Following hemodynamic measurement, hearts were excised and weighed. Pieces of scarred myocardium, and right ventricle and left ventricle myocardium distant from the site of infarct were dissected out and weighed. Hydroxyproline and proline were determined by the method of Palmerini et al. (1985, J Chromatogr 339:285-92) except that L-azetidine-2-carboxylic acid (Sigma-Aldrich) was substituted for 3,4-dehydroproline as the internal standard.

HIF-regulated genes = assay: Expression of HIF-regulated genes in vivo, Murine genome U74AV2 array; design: species or system mouse; settings: 100 mg/kg oral gavage
Experimental: Twenty four Swiss Webster male mice (30-32 g) were obtained from Simonsen, Inc., and treated by oral gavage with a 4 ml/kg volume of either 0.5% CMC (Sigma-Aldrich) (0 mg/kg/day) or […] Compound A (25 mg/ml in 0.5% CMC) (100 mg/kg). At 4, 8, 16, 24, 48, or 72 hours after the final dose, animals were anesthetized with isoflurane and a blood sample was collected from the abdominal vein. The blood sample was collected into a MICROTAINER serum separator tube (Becton-Dickinson, Franklin Lakes N.J.), incubated at room temperature for 30 minutes, centrifuged at 8,000 rpm at 4° C. for 10 min, and cell pellet was resuspended in […] solution (Ambion) and stored at −80° C. The mice were then sacrificed and tissue samples of kidney, liver, brain, lung, and heart were isolated and stored in […] solution (Ambion) at −80° C.
RNA isolation was carried out using the following protocol. […] The RNA was eluted into 80 μL of water and quantitated with RIBOGREEN reagent (Molecular Probes, Eugene Oreg.). […] The absorbance at 260 and 280 nm was measured to determine RNA purity and concentration.
Alternatively, tissue samples were diced and homogenized in TRIZOL reagent (Invitrogen Life Technologies, Carlsbad Calif.) using a rotor-stator POLYTRON homogenizer (Kinematica). […] The absorbance at 260 and 280 nm was measured to determine RNA purity and concentration. […]

[2] = tested on: vascular endothelial growth factor (VEGF); assay: VEGF expression in conditioned media, QUANTIKINE immunoassay; format: cell-based, human; settings: HFF, 293A and Hep3B cells
Experimental: When cell layers reached confluence, the media was replaced with OPTI-MEM media (Invitrogen Life Technologies, Carlsbad Calif.) and cell layers were incubated for approximately 24 hours in 20% O2, 5% CO2 at 37° C. Compound of the invention (one of compounds A to O) or DMSO (0.5 to 1%) was then added to existing medium, and incubation was continued overnight.
Conditioned media collected from cell cultures grown as in Example 1 was analyzed for vascular endothelial growth factor (VEGF) expression using a QUANTIKINE immunoassay (R&D Systems) according to the manufacturer's instructions. […] Values on the y-axis represent fold-induction relative to control and are reported on a log2 scale, such that a value of 1 represents 2-fold induction.

SMILES: O=C(O)c1c[nH]c2c(ccc3cccnc32)c1=O [Compound A, 4-oxo-1,4-dihydro-[1,10]phenanthroline-3-carboxylic acid]
- deaths immediately following insult to the heart (FIG. 8) ([1]; 50 mg/kg gavage 2 times per day, n=34): no deaths
- percent of treated group still alive ([1]; 8 weeks after myocardial infarction, 50 mg/kg gavage 2 times per day): over 90%
- +dP/dt ([1]; 10 weeks post-MI): 6701 ± 331 mm Hg/sec
- Developed pressure ([1]; 10 weeks post-MI): 97 ± 3 mm Hg
- Hydroxyproline/proline in infarct scar ([1]; 10 weeks post-MI): 0.471 ± 0.024
- Hydroxyproline/proline in non-infarct left ventricular myocardium ([1]; 10 weeks post-MI): 0.099 ± 0.025
- Hydroxyproline/proline in non-infarct right ventricular myocardium ([1]; 10 weeks post-MI): 0.152 ± 0.044
- Systolic BP ([1]; 10 weeks post-MI): 106 ± 4 mm Hg
- −dP/dt ([1]; 10 weeks post-MI): 6395 ± 373 mm Hg/sec
- left ventricular ejection fraction (LVEF) ([1]; at randomization): 33%
- relative reduction in mortality ([1]; treated relative to untreated group, weeks 2 through 8): 77%
- left ventricular ejection fraction (LVEF) relative to untreated controls (FIG. 10A) ([1]; weeks 2 through 8): statistically significant improvement
- expression of genes encoding glycolytic enzymes (FIG. 7A) (HIF-regulated genes; mouse kidney): increased
- expression of genes encoding angiogenic proteins (FIG. 5A) (HIF-regulated genes; mouse lung): increased
- VEGF expression in conditioned media (FIG. 4A) [2]: increase in VEGF expression
